Assay results published in US8293269B2, “Compositions for promoting sleep” (Taiyo Kagaku Co., Ltd., priority 2000, dated 2012).

Test system: mice
Assay: acute toxic test using mice
Assay type: in vivo
Settings: administered orally at 5 g/kg
Description: The safety of the theanine used in the present invention is high. […] In addition, especially L-theanine is known as the main component of deliciousness (umami) of tea, and is also used as a food additive for the use of deliciousness, and there is no limitation in its amount according to the Japanese Food Sanitation Act. Moreover, contrary to the conventional medicament for ameliorating sleep disorders, since dependence on the theanine is not found at all, the sleep can be promoted safely and effectively by the use of the composition, food or medicament of the present invention, whereby moderating or ameliorating the sleep disorders.

SMILES: CCNC(=O)CC[C@H](N)C(=O)O [theanine, γ-glutamylethylamide]
- abnormality in the general state and body weight: no abnormality
- death cases: no death cases
